Measured values published in PubChem BioAssay (NCI).
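Grown in 96-well plates, cells were treated for 48 hours with each compound at five concentrations. Insufficient inhibition: endpoint recorded as highest concentration tested. GI50 is the concentration that inhibits growth by half. At the TGI there is no net growth.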

Each compound was assayed on U251 CNS (assay: inhibition of tumour cell growth, NCI panel, 48 h).
Work on CC1(C)OC(=O)C(=C2CCC(C(=O)Nc3cccc(C(F)(F)F)c3)N2)C(=O)O1 (configuration not stated) yielded a TGI greater than 100 µM. CN(C)CCN1CCc2c([nH]c3ccccc23)C1c1cccnc1 (configuration not stated) was tested, and the TGI was greater than 100 µM. With CCN(c1ccccc1)[C@H]1C(=O)N(c2ccc([N+](=O)[O-])cc2)[C@H]1c1ccc(OC)cc1 the TGI was greater than 100 µM. Compound COc1ccc(/C=C\c2cc(OC)c(OC)c(OC)c2)cc1 has a TGI of 1.25 µM. With C[C@H]1CC[P+](C)(c2ccccc2)C1 (some centres not stated) the TGI was greater than 100 µM. For COc1cc(OC)c2c(=O)c3cccc([N+](=O)[O-])c3n(C)c2c1, the TGI was greater than 100 µM. For COc1cccc(/C=N\NC(=O)C(C)SC(C)C(=O)N/N=C/c2cccc(OC)c2)c1 (configuration not stated), the TGI was 35.9 µM. With Cc1cc(C)nc(NS(=O)(=O)c2ccc(Nc3c4ccccc4nc4c(C(=O)NCCN(C)C)cccc34)cc2)n1 the TGI was 18.1 µM. With COc1cc2c(c(OC)c1OC)C(=O)NCCC2 the TGI was greater than 100 µM. O=C1CCC(=O)N1Sc1ccccc1 showed a TGI greater than 100 µM. With O=C(/C=C/c1ccccc1O)c1ccccc1Cl the TGI was greater than 100 µM. With CCCCC1(C(NC(=O)c2ccccc2Cl)c2ccncc2)C(=O)N(c2ccccc2)N(c2ccccc2)C1=O (configuration not stated) the TGI was greater than 100 µM. Work on N#Cc1cc(S(=O)(=O)Nc2nc3cc(Cl)ccc3o2)c(SCc2ccccc2)cc1Cl yielded a GI50 of 13.4 µM and a TGI of 26.2 µM. For C1=CC2CCC1CN2CCC1CNc2ccccc21 (configuration not stated), the TGI was greater than 100 µM. CN1CCc2ccccc2C(C(=O)c2ccc3c(c2)OCO3)C1=O (configuration not stated) gave a TGI greater than 100 µM. Cc1cc(Cl)ccc1NC(=O)C1C(=O)N(c2ccc(Cl)cc2C)C(=O)/C1=N\NC(N)=S (configuration not stated) was tested, and the TGI was 39.6 µM. Cc1ccc2ccc(-c3ccccc3)c3c2c1C(=O)c1ccccc1C3=O was tested, and the TGI was greater than 100 µM. OCC(O)C(O)C(O)c1nn(-c2ccc(F)cc2)c2nc3cc(Cl)c(Cl)cc3nc12 (configuration not stated) was tested, and the TGI was greater than 100 µM. COc1ccc(C2Cc3cc(OC)c(OC)c(OC)c3C2)cc1 (configuration not stated) was tested, and the TGI was greater than 100 µM.

The compounds below were run on SK-OV-3 ovarian (assay: inhibition of tumour cell growth, NCI panel, 48 h).
In the case of CC1(C)OC(=O)C(=C2CCC(C(=O)Nc3cccc(C(F)(F)F)c3)N2)C(=O)O1 (configuration not stated), the TGI is reported as greater than 100 µM. In the case of CN(C)CCN1CCc2c([nH]c3ccccc23)C1c1cccnc1 (configuration not stated), the TGI is reported as greater than 100 µM. With CCN(c1ccccc1)[C@H]1C(=O)N(c2ccc([N+](=O)[O-])cc2)[C@H]1c1ccc(OC)cc1 the TGI was greater than 100 µM. For COc1ccc(/C=C\c2cc(OC)c(OC)c(OC)c2)cc1, the GI50 was 99.3 µM and the TGI was greater than 100 µM. C[C@H]1CC[P+](C)(c2ccccc2)C1 (some centres not stated) was tested, and the TGI was greater than 100 µM. In the case of COc1cc(OC)c2c(=O)c3cccc([N+](=O)[O-])c3n(C)c2c1, the TGI is reported as greater than 100 µM. Work on COc1cccc(/C=N\NC(=O)C(C)SC(C)C(=O)N/N=C/c2cccc(OC)c2)c1 (configuration not stated) yielded a TGI of 32.4 µM. Compound COc1cc2c(c(OC)c1OC)C(=O)NCCC2 has a TGI greater than 100 µM. For O=C1CCC(=O)N1Sc1ccccc1, the TGI was greater than 100 µM. In the case of O=C(/C=C/c1ccccc1O)c1ccccc1Cl, the TGI is reported as greater than 100 µM. For CCCCC1(C(NC(=O)c2ccccc2Cl)c2ccncc2)C(=O)N(c2ccccc2)N(c2ccccc2)C1=O (configuration not stated), the TGI was greater than 100 µM. C1=CC2CCC1CN2CCC1CNc2ccccc21 (configuration not stated) was tested, and the TGI was greater than 100 µM. In the case of CN1CCc2ccccc2C(C(=O)c2ccc3c(c2)OCO3)C1=O (configuration not stated), the TGI is reported as greater than 100 µM. For Cc1ccc2ccc(-c3ccccc3)c3c2c1C(=O)c1ccccc1C3=O, the TGI was greater than 100 µM. Compound OCC(O)C(O)C(O)c1nn(-c2ccc(F)cc2)c2nc3cc(Cl)c(Cl)cc3nc12 (configuration not stated) has a TGI of 46.4 µM. Work on COc1ccc(C2Cc3cc(OC)c(OC)c(OC)c3C2)cc1 (configuration not stated) yielded a TGI greater than 100 µM.

Each compound was assayed on SR leukemia (assay: inhibition of tumour cell growth, NCI panel, 48 h).
CN(C)CCN1CCc2c([nH]c3ccccc23)C1c1cccnc1 (configuration not stated) was tested, and the TGI was greater than 100 µM. In the case of CCN(c1ccccc1)[C@H]1C(=O)N(c2ccc([N+](=O)[O-])cc2)[C@H]1c1ccc(OC)cc1, the TGI is reported as greater than 100 µM. COc1ccc(/C=C\c2cc(OC)c(OC)c(OC)c2)cc1 showed a TGI of 78.7 µM. In the case of C[C@H]1CC[P+](C)(c2ccccc2)C1 (some centres not stated), the TGI is reported as greater than 100 µM. Work on COc1cccc(/C=N\NC(=O)C(C)SC(C)C(=O)N/N=C/c2cccc(OC)c2)c1 (configuration not stated) yielded a TGI greater than 100 µM. In the case of Cc1cc(C)nc(NS(=O)(=O)c2ccc(Nc3c4ccccc4nc4c(C(=O)NCCN(C)C)cccc34)cc2)n1, the TGI is reported as 43.7 µM. Work on COc1cc2c(c(OC)c1OC)C(=O)NCCC2 yielded a TGI greater than 100 µM. In the case of O=C(/C=C/c1ccccc1O)c1ccccc1Cl, the TGI is reported as 76.5 µM. Work on CCCCC1(C(NC(=O)c2ccccc2Cl)c2ccncc2)C(=O)N(c2ccccc2)N(c2ccccc2)C1=O (configuration not stated) yielded a TGI of 93.9 µM. Compound N#Cc1cc(S(=O)(=O)Nc2nc3cc(Cl)ccc3o2)c(SCc2ccccc2)cc1Cl has a GI50 of 15.2 µM and a TGI of 28.5 µM. For C1=CC2CCC1CN2CCC1CNc2ccccc21 (configuration not stated), the TGI was greater than 100 µM. Cc1ccc2ccc(-c3ccccc3)c3c2c1C(=O)c1ccccc1C3=O was tested, and the TGI was greater than 100 µM.

The compounds below were run on NCI-H460 lung (assay: inhibition of tumour cell growth, NCI panel, 48 h).
CC1(C)OC(=O)C(=C2CCC(C(=O)Nc3cccc(C(F)(F)F)c3)N2)C(=O)O1 (configuration not stated) showed a TGI greater than 100 µM. CN(C)CCN1CCc2c([nH]c3ccccc23)C1c1cccnc1 (configuration not stated) gave a TGI greater than 100 µM. CCN(c1ccccc1)[C@H]1C(=O)N(c2ccc([N+](=O)[O-])cc2)[C@H]1c1ccc(OC)cc1 gave a TGI greater than 100 µM. With COc1ccc(/C=C\c2cc(OC)c(OC)c(OC)c2)cc1 the TGI was 15.6 µM. C[C@H]1CC[P+](C)(c2ccccc2)C1 (some centres not stated) gave a TGI greater than 100 µM. COc1cccc(/C=N\NC(=O)C(C)SC(C)C(=O)N/N=C/c2cccc(OC)c2)c1 (configuration not stated) was tested, and the TGI was 23.2 µM. Cc1cc(C)nc(NS(=O)(=O)c2ccc(Nc3c4ccccc4nc4c(C(=O)NCCN(C)C)cccc34)cc2)n1 gave a TGI of 10.9 µM. With COc1cc2c(c(OC)c1OC)C(=O)NCCC2 the TGI was greater than 100 µM. For O=C1CCC(=O)N1Sc1ccccc1, the TGI was greater than 100 µM. With O=C(/C=C/c1ccccc1O)c1ccccc1Cl the TGI was greater than 100 µM. Work on CCCCC1(C(NC(=O)c2ccccc2Cl)c2ccncc2)C(=O)N(c2ccccc2)N(c2ccccc2)C1=O (configuration not stated) yielded a TGI greater than 100 µM. With N#Cc1cc(S(=O)(=O)Nc2nc3cc(Cl)ccc3o2)c(SCc2ccccc2)cc1Cl the GI50 was 15.3 µM and the TGI was 28.6 µM. CN1CCc2ccccc2C(C(=O)c2ccc3c(c2)OCO3)C1=O (configuration not stated) gave a TGI greater than 100 µM. Cc1cc(Cl)ccc1NC(=O)C1C(=O)N(c2ccc(Cl)cc2C)C(=O)/C1=N\NC(N)=S (configuration not stated) gave a TGI greater than 100 µM. OCC(O)C(O)C(O)c1nn(-c2ccc(F)cc2)c2nc3cc(Cl)c(Cl)cc3nc12 (configuration not stated) gave a TGI of 82.1 µM. In the case of COc1ccc(C2Cc3cc(OC)c(OC)c(OC)c3C2)cc1 (configuration not stated), the TGI is reported as greater than 100 µM.

Each compound was assayed on IGROV1 ovarian (assay: inhibition of tumour cell growth, NCI panel, 48 h).
CC1(C)OC(=O)C(=C2CCC(C(=O)Nc3cccc(C(F)(F)F)c3)N2)C(=O)O1 (configuration not stated) gave a TGI greater than 100 µM. For CN(C)CCN1CCc2c([nH]c3ccccc23)C1c1cccnc1 (configuration not stated), the TGI was greater than 100 µM. In the case of CCN(c1ccccc1)[C@H]1C(=O)N(c2ccc([N+](=O)[O-])cc2)[C@H]1c1ccc(OC)cc1, the TGI is reported as greater than 100 µM. Work on COc1ccc(/C=C\c2cc(OC)c(OC)c(OC)c2)cc1 yielded a TGI greater than 100 µM. C[C@H]1CC[P+](C)(c2ccccc2)C1 (some centres not stated) showed a TGI greater than 100 µM. Work on COc1cc(OC)c2c(=O)c3cccc([N+](=O)[O-])c3n(C)c2c1 yielded a TGI greater than 100 µM. COc1cccc(/C=N\NC(=O)C(C)SC(C)C(=O)N/N=C/c2cccc(OC)c2)c1 (configuration not stated) gave a TGI of 41.7 µM. Cc1cc(C)nc(NS(=O)(=O)c2ccc(Nc3c4ccccc4nc4c(C(=O)NCCN(C)C)cccc34)cc2)n1 was tested, and the TGI was 16.4 µM. COc1cc2c(c(OC)c1OC)C(=O)NCCC2 gave a TGI greater than 100 µM. Work on O=C1CCC(=O)N1Sc1ccccc1 yielded a TGI greater than 100 µM. In the case of O=C(/C=C/c1ccccc1O)c1ccccc1Cl, the TGI is reported as greater than 100 µM. For CCCCC1(C(NC(=O)c2ccccc2Cl)c2ccncc2)C(=O)N(c2ccccc2)N(c2ccccc2)C1=O (configuration not stated), the TGI was greater than 100 µM. Compound N#Cc1cc(S(=O)(=O)Nc2nc3cc(Cl)ccc3o2)c(SCc2ccccc2)cc1Cl has a GI50 of 15 µM and a TGI of 28.3 µM. With C1=CC2CCC1CN2CCC1CNc2ccccc21 (configuration not stated) the TGI was greater than 100 µM.
